Assay in all cases: Herbicidal action, post-emergence treatment, field trial
Type in all cases: in vivo
Holding throughout (details): application rate 1250 g/ha ai, scale 0 = no damage, 100 = complete destruction

One assay concerns Anoda cristata. The text has this:
(§1) The mixtures according to the invention were applied pre- or post-emergence (foliar treatment). The herbicidal compounds of component B and of component C were applied in the formulation in which they are present as commercially available product.
(§2) The herbicidally active compounds of components A), B) and C) were applied in succession or jointly, in the latter case in some cases as a tank mix and in some cases as a readymix, in the form of emulsions, aqueous solutions or suspensions, the vehicle being water (300-400 l/ha). In the case of the field trials, application was effected with the aid of a mobile plot sprayer.
(§3) The test period extended over 3 to 8 weeks, and the stands were also observed at later points in time.
(§4) Damage by the herbicidal compositions was evaluated with reference to a scale of 0% to 100% in comparison with untreated control plots. 0 means no damage and 100 means complete destruction of the plants.
(§5) In these examples, the value E at which only an additive effect of the individual active ingredients is to be expected was calculated by the method of S. R. Colby (Calculating synergistic and antagonistic responses of herbicide combinations, Weeds 15, 20 pp (1967)).
(§6) This was done using the formula
(§7) [formula] where • X=Percentage of the herbicidal action of component X) at an application rate of x; • Y=Percentage of the herbicidal action of component Y) at an application rate of y; • E=expected herbicidal action of component X)+Y) at rates of application x+y (in %).
(§8) If the value observed exceeds the value E calculated in accordance with Colby's formula, then synergism is present.

The test system of another assay is Sorghum halepense.
Text: as §1, §2, §3, §4, §5, §6, §7, §8

The subject of another assay is Tagetes minuta.
Text: as §1, §2, §3, §4, §5, §6, §7, §8

For the compound `CCNc1nc(Cl)nc(NC(C)C)n1` [atrazine], the “Anoda cristata Damage [%]” value in the assay with Anoda cristata came out at 70%. Also, in the assay with Sorghum halepense, the “Sorghum halepense Damage [%]” value was found to be 10%. For the same compound, the “Tagetes minuta Damage [%]” value in the assay on Tagetes minuta was determined as 50%.

These data come from US7521395B2, “Synergistically acting herbicidal mixtures” (BASF Aktiengesellschaft, priority 2002, dated 2009).
